Values after ≈ are worked out from the molar mass of the structure shown.
Legend:
Type in all cases: cell-based
[1] = test system: Mycobacterium tuberculosis H37Rv; assay: Microplate Alamar Blue assay (MABA) MIC, M. tuberculosis; settings: read-out: MIC Mycobacterium tuberculosis H37Rv
Description: (§1) Minimal inhibitory concentrations (MICs) in Mycobacterium tuberculosis H37Rv and Mycobacterium avium ATCC 25291 were quantified using microplate Alamar Blue assays as described (MABA; [Collins, L. & Franzblau, S. (1997) Microplate Alamar Blue assay versus BACTEC 460 system for high-throughput screening of compounds against Mycobacterium tuberculosis and Mycobacterium avium. Antimicrob. Agents Chemother. 41, 1004-1009]).

[2] = test system: Mycobacterium avium ATCC 25291; assay: Microplate Alamar Blue assay (MABA) MIC, M. avium; settings: ATCC25291, M. avium ATCC 25291
Description: as §1

[3] = test system: Mycobacterium smegmatis ATCC 19420; assay: Broth microdilution MIC, M. smegmatis; settings: Mycolicibacterium smegmatis, ATCC19420, M. smegmatis ATCC 19420; read-out: MIC Mycobacterium smegmatis ATCC 19420
Description: MICs in Mycobacterium smegmatis ATCC 19420 and Mycobacterium smegmatis ATCC 19420 derivatives were quantified using broth microdilution assays as described [Clinical and Laboratory Standards Institute (CLSI/NCCLS) (2009) Methods for Dilution Antimicrobial Susceptibility Tests for Bacteria That Grow Aerobically; Approved Standard, Eighth Edition. CLIS Document M07-A8 (CLIS, Wayne Pa.)].

[4] = test system: Vero E6 ATCC CRL1586 cells; assay: Mammalian-cell cytotoxicity, minimal cytotoxic concentration (CellTiter96)
Description: Minimal cytotoxic concentrations (MCCs) against mammalian cells in culture were determined using Vero E6 ATCC CRL1586 cells and the CellTiter96 assay kit (Promega, Inc.). […]

SMILES	MIC [1]	MIC [2]	MIC [3]	MCC mammalian cells Vero E6 ATCC CRL1586 [4]
O=C(NC(Cc1ccc(O)cc1)C(=O)Nc1cccc2c1OCCO2)c1ccccc1 (centres unmarked) [IX-21, N-(1-((2,3-dihydrobenzo[b][1,4]dioxin-5-yl)amino)-3-(4-hydroxyphenyl)-1-oxopropan-2-yl)benzamide]	6.25 µg/mL (≈ 14.9 µM)	6.25 µg/mL (≈ 14.9 µM)	0.78 µg/mL (≈ 1.86 µM)	>100 µg/mL
O=C(NC(Cc1ccccc1)C(=O)Nc1cccc2c1OCCO2)c1cccs1 (centres unmarked) [IX-31, N-(1-((2,3-dihydrobenzo[b][1,4]dioxin-5-yl)amino)-1-oxo-3-phenylpropan-2-yl)thiophene-2-carboxamide]	3.12 µg/mL (≈ 7.65 µM)	3.12 µg/mL (≈ 7.65 µM)	0.195 µg/mL (≈ 0.477 µM)	30 µg/mL
COc1ccc(F)cc1NC(=O)C(Cc1ccccc1)NC(=O)c1cccc2[nH]ccc12 (centres unmarked) [IX-244, N-(1-((5-fluoro-2-methoxyphenyl)amino)-1-oxo-3-phenylpropan-2-yl)-1H-indole-4-carboxamide]	6.25 µg/mL (≈ 14.5 µM)	3.12 µg/mL (≈ 7.24 µM)	0.78 µg/mL (≈ 1.81 µM)	58 µg/mL
CC1CN(c2ccccc2NC(=O)C(Cc2ccccc2)NC(=O)c2ccccc2)CC(C)O1 (centres unmarked) [IX-265, N-(1-((2-(2,6-dimethylmorpholino)phenyl)amino)-1-oxo-3-phenyl-propan-2-yl)benzamide]	6.25 µg/mL (≈ 13.7 µM)	6.25 µg/mL (≈ 13.7 µM)	1.56 µg/mL (≈ 3.41 µM)	>100 µg/mL
Cc1ccccc1C(=O)NC(Cc1ccccc1)C(=O)Nc1ccccc1N1CCOCC1 (centres unmarked) [IX-153, 2-methyl-N-(1-((2-morpholinophenyl)amino)-1-oxo-3-phenylpropan-2-yl)benzamide]	0.78 µg/mL (≈ 1.76 µM)	1.56 µg/mL (≈ 3.52 µM)	0.036 µg/mL (≈ 0.0812 µM)	84 µg/mL
Cc1ccccc1C(=O)NC(Cc1ccccc1)C(=O)Nc1cccc2cc[nH]c12 (centres unmarked) [IX-97, N-(1-((1H-indol-7-yl)amino)-1-oxo-3-phenylpropan-2-yl)-2-methylbenzamide]	6.25 µg/mL (≈ 15.7 µM)	12.5 µg/mL (≈ 31.4 µM)	0.39 µg/mL (≈ 0.981 µM)	15 µg/mL
O=C(NC(Cc1ccccc1)C(=O)Nc1cccc2cnccc12)c1ccccc1Cl (centres unmarked) [IX-63, 2-chloro-N-(1-(isoquinolin-5-ylamino)-1-oxo-3-phenylpropan-2-yl)benzamide]	6.25 µg/mL (≈ 14.5 µM)	12.5 µg/mL (≈ 29.1 µM)	0.78 µg/mL (≈ 1.81 µM)	>100 µg/mL
Cc1ccccc1NC(=O)C(Cc1ccccc1)NC(=O)c1cccc(OC(F)F)c1 (centres unmarked) [I-70]	6.25 µg/mL (≈ 14.7 µM)	> 50 µg/mL	50 µg/mL (≈ 118 µM)	90 µg/mL
COc1ncccc1NC(=O)C(Cc1ccccc1)NC(=O)c1ccccc1 (centres unmarked) [IX-38, N-(1-((2-methoxypyridin-3-yl)amino)-1-oxo-3-phenylpropan-2-yl)benzamide]	6.25 µg/mL (≈ 16.6 µM)	6.25 µg/mL (≈ 16.6 µM)	0.39 µg/mL (≈ 1.04 µM)	38 µg/mL
O=C(NC(Cc1ccc(O)cc1)C(=O)Nc1ccccc1N1CCNCC1)c1cccs1 (centres unmarked) [IX-219, N-(3-(4-hydroxyphenyl)-1-oxo-1-((2-(piperazin-1-yl)phenyl)amino)-propan-2-yl)thiophene-2-carboxamide]	1.56 µg/mL (≈ 3.46 µM)	3.12 µg/mL (≈ 6.94 µM)	0.78 µg/mL (≈ 1.73 µM)	69 µg/mL
O=C(NC(Cc1ccccc1)C(=O)Nc1cccc2[nH]ccc12)c1cccs1 (centres unmarked) [IX-104, N-(1-((1H-indol-4-yl)amino)-1-oxo-3-phenylpropan-2-yl)thiophene-2-carboxamide]	25 µg/mL (≈ 64.2 µM)	50 µg/mL (≈ 128 µM)	0.39 µg/mL (≈ 1 µM)	33 µg/mL
O=C(NC(Cc1ccccc1)C(=O)Nc1cccc2cc[nH]c12)c1ccccc1Cl (centres unmarked) [IX-95, N-(1-((1H-indol-7-yl)amino)-1-oxo-3-phenylpropan-2-yl)-2-chlorobenzamide]	12.5 µg/mL (≈ 29.9 µM)	25 µg/mL (≈ 59.8 µM)	0.39 µg/mL (≈ 0.933 µM)	20 µg/mL
COc1ccc(F)cc1NC(=O)C(Cc1ccc(O)cc1)NC(=O)c1ccccc1C (centres unmarked) [IX-205, N-(1-((5-fluoro-2-methoxyphenyl)amino)-3-(4-hydroxyphenyl)-1-oxopropan-2-yl)-2-methylbenzamide]	0.78 µg/mL (≈ 1.85 µM)	0.78 µg/mL (≈ 1.85 µM)	0.39 µg/mL (≈ 0.923 µM)	70 µg/mL
O=C(NC(Cc1ccc(O)cc1)C(=O)Nc1ccccc1N1CCOCC1)c1ccccc1F (centres unmarked) [IX-155, 2-fluoro-N-(3-(4-hydroxyphenyl)-1-((2-morpholinophenyl)amino)-1-oxopropan-2-yl)benzamide]	1.56 µg/mL (≈ 3.37 µM)	12.5 µg/mL (≈ 27 µM)	0.195 µg/mL (≈ 0.421 µM)	77 µg/mL
O=C(NC(Cc1ccc(O)cc1)C(=O)Nc1cccc2cnccc12)c1cccs1 (centres unmarked) [IX-33, N-(3-(4-hydroxyphenyl)-1-(isoquinolin-5-ylamino)-1-oxopropan-2-yl)thiophene-2-carboxamide]	12.5 µg/mL (≈ 29.9 µM)	6.25 µg/mL (≈ 15 µM)	0.195 µg/mL (≈ 0.467 µM)	80 µg/mL
Cc1c(NC(=O)C(Cc2ccccc2)NC(=O)c2ccccc2)cccc1C(F)F (centres unmarked) [I-149]	> 50 µg/mL	> 50 µg/mL	0.39 µg/mL (≈ 0.955 µM)	20 µg/mL
Cc1ccccc1C(=O)NC(Cc1ccccc1)C(=O)Nc1cccc2c1OCCO2 (centres unmarked) [IX-71, N-(1-((2,3-dihydrobenzo[b][1,4]dioxin-5-yl)amino)-1-oxo-3-phenylpropan-2-yl)-2-methylbenzamide]	1.56 µg/mL (≈ 3.75 µM)	3.12 µg/mL (≈ 7.5 µM)	0.39 µg/mL (≈ 0.936 µM)	10 µg/mL
Cc1ccc(Cl)cc1NC(=O)C(Cc1ccccc1)NC(=O)c1ccccc1Cl (centres unmarked) [IX-61, 2-chloro-N-(1-((5-chloro-2-methylphenyl)amino)-1-oxo-3-phenylpropan-2-yl)benzamide]	> 50 µg/mL	> 50 µg/mL	0.39 µg/mL (≈ 0.913 µM)	9.2 µg/mL
COc1ccc(F)cc1NC(=O)C(Cc1ccc(O)cc1)NC(=O)c1ccccc1 (centres unmarked) [IX-203, N-(1-((5-fluoro-2-methoxyphenyl)amino)-3-(4-hydroxyphenyl)-1-oxopropan-2-yl)benzamide]	0.78 µg/mL (≈ 1.91 µM)	0.78 µg/mL (≈ 1.91 µM)	0.195 µg/mL (≈ 0.477 µM)	>100 µg/mL
O=C(NC(Cc1ccccc1)C(=O)Nc1cccc2c1OCO2)c1cccs1 (centres unmarked) [IX-98, N-(1-(benzo[d][1,3]dioxol-4-ylamino)-1-oxo-3-phenylpropan-2-yl)thiophene-2-carboxamide]	6.25 µg/mL (≈ 15.8 µM)	3.12 µg/mL (≈ 7.92 µM)	0.195 µg/mL (≈ 0.494 µM)	13 µg/mL
O=C(NC(Cc1ccccc1)C(=O)Nc1ccccc1OC(F)F)c1ccccc1 (centres unmarked) [I-61, N-(1-((2-(difluoromethoxy)phenyl)amino)-1-oxo-3-phenylpropan-2-yl)benzamide]	6.25 µg/mL (≈ 15.2 µM)	6.25 µg/mL (≈ 15.2 µM)	0.39 µg/mL (≈ 0.95 µM)	>100 µg/mL
Cc1ccccc1C(=O)NC(Cc1ccccc1)C(=O)Nc1cccc2c1cnn2C (centres unmarked) [IX-297, 2-methyl-N-(1-((1-methyl-1H-indazol-4-yl)amino)-1-oxo-3-phenyl-propan-2-yl)benzamide]	12.5 µg/mL (≈ 30.3 µM)	12.5 µg/mL (≈ 30.3 µM)	0.78 µg/mL (≈ 1.89 µM)	>100 µg/mL
COc1ccccc1NC(=O)C(Cc1ccccc1)NC(=O)c1cccs1 (centres unmarked) [IX-29, N-(1-((2-methoxyphenyl)amino)-1-oxo-3-phenylpropan-2-yl)thiophene-2-carboxamide]	3.12 µg/mL (≈ 8.21 µM)	6.25 µg/mL (≈ 16.4 µM)	0.195 µg/mL (≈ 0.513 µM)	>100 µg/mL
